Activity calls are given as the source filed them. The calls are words filed in the database; no cut-off is given here.

Sequence of Sigma non-opioid intracellular receptor 1 (Q99720 whole entry): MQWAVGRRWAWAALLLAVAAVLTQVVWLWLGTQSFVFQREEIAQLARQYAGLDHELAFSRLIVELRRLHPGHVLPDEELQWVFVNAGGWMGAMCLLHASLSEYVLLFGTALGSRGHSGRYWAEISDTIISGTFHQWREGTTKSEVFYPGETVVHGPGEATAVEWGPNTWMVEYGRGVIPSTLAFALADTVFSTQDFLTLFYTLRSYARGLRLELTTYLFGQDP
Sequence of 5-hydroxytryptamine receptor 2A (Homo sapiens) (P28223 whole entry): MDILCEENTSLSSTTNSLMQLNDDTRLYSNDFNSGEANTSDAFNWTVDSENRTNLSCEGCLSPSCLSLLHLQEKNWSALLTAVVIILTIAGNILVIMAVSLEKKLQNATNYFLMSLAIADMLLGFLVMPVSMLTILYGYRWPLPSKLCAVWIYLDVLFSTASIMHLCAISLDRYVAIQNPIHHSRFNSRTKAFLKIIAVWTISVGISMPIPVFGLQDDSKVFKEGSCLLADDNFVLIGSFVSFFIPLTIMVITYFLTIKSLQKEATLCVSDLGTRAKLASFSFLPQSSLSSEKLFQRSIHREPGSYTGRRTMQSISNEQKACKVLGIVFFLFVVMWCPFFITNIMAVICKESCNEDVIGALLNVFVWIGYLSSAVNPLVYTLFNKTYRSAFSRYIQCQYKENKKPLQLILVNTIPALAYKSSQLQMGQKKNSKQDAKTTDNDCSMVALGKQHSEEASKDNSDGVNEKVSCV
Sequence of Acetylcholinesterase (Homo sapiens) (P22303 whole entry): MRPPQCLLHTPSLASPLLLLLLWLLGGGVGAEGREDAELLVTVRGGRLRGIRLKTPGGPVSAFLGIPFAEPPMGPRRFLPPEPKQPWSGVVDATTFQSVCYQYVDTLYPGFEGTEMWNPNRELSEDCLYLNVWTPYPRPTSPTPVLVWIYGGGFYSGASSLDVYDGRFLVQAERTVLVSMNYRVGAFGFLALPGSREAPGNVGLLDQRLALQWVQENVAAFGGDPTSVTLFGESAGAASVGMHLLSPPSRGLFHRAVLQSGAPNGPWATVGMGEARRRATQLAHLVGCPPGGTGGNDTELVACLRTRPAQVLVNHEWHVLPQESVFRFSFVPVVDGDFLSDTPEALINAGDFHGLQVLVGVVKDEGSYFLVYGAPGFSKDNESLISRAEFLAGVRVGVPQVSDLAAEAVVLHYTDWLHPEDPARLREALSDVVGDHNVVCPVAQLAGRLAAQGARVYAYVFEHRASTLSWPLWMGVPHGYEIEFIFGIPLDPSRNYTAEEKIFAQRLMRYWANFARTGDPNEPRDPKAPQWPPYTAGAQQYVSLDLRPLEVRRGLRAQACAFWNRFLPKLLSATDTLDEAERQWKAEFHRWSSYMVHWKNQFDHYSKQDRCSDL
Sequence of Kappa-type opioid receptor (Homo sapiens) (P41145 whole entry): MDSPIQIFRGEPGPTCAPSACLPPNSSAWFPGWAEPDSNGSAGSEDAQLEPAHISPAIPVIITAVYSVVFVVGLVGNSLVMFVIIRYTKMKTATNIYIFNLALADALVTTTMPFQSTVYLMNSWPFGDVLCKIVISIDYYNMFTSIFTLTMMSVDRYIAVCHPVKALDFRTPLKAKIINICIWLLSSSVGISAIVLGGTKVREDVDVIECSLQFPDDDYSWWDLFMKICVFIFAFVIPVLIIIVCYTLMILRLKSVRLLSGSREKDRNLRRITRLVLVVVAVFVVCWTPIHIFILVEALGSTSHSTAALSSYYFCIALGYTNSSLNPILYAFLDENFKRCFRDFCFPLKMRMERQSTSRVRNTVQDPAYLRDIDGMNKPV
Sequence of Mu-type opioid receptor (Homo sapiens) (P35372 whole entry): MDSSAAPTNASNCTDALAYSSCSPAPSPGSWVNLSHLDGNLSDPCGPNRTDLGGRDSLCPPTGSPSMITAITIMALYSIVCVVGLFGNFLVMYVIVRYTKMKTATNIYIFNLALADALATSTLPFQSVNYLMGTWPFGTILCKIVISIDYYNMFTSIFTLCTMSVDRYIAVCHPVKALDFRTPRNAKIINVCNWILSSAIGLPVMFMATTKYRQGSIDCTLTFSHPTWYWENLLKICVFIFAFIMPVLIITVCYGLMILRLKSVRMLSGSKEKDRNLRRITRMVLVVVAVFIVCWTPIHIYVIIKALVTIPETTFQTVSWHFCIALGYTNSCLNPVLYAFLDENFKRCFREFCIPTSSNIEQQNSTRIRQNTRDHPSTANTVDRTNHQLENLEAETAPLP

System in the first series: not listed separately
Nature of the series: Intrinsic clearance in rat liver microsomes measured per mg of protein. The series is classed as ADME. The note with it: read-out: CLH.
With `O=C(NCCN1CCN(Cc2ccc(Cl)c(Cl)c2)CC1)[C@H]1C[C@@H]1c1ccccc1` (racemic), the microsomal CLint turned out to be 200 µL/min/mg.

As for `O=C([C@H]1C[C@@H]1c1ccccc1)N1CCC(N2CCCC2)CC1` (racemic), the microsomal CLint turned out to be 25 µL/min/mg.

Regarding `C=CCN1CC[C@]2(C)c3cc(O)ccc3C[C@@H]1[C@@H]2C`, the microsomal CLint was 313 µL/min/mg.

Consider `O=C(NCCN1CCN(C(=O)c2c(F)cccc2Cl)CC1)[C@H]1C[C@@H]1c1ccccc1` (racemic), for which the microsomal CLint amounted to 81 µL/min/mg.

`O=C(NCCCNC1CCCCC1)[C@H]1C[C@@H]1c1ccccc1` (stereo in doubt; (+)-1): the microsomal CLint came to 147 µL/min/mg.

For the molecule `O=C([C@H]1C[C@@H]1c1ccc(F)cc1)N1CCC(CNCC2CCCCC2)CC1` (racemic), the microsomal CLint turned out to be 17 µL/min/mg.

The test system of another series is Mus musculus. Nature of the series: Antiamnesic activity in C57BL6/J mouse assessed as reduction of scopolamine-induced memory deficit at 0.03 to 1 mg/kg, ip administered 40 mins prior to acquisition trial by two-trial object recognition test.
Conditions: not given
Type of series: functional, organism-based.
`C=CCN1CC[C@]2(C)c3cc(O)ccc3C[C@@H]1[C@@H]2C`: the result was Active.

A further series addresses Sigma non-opioid intracellular receptor 1 (Homo sapiens, UniProt Q99720). The experiment in a line: Displacement of [3H]-pentazocine from human recombinant sigma-1 receptor expressed in CHO cells after 180 mins by beta counting analysis.
Conditions: not given
Type of series: cell-based.
The term Ki denotes a measure of affinity in units of concentration, obtained from inhibition or displacement. Turning to `O=C(NCCN1CCN(Cc2ccc(Cl)c(Cl)c2)CC1)[C@H]1C[C@@H]1c1ccccc1` (racemic), the inhibition constant (Ki) is 10 nM.

With `O=C([C@H]1C[C@@H]1c1ccccc1)N1CCC(N2CCCC2)CC1` (racemic), the Ki was 200 nM.

On to `C=CCN1CC[C@]2(C)c3cc(O)ccc3C[C@@H]1[C@@H]2C`, for which the inhibitory constant (Ki) was 158 nM.

Consider `O=C(NCCN1CCN(C(=O)c2c(F)cccc2Cl)CC1)[C@H]1C[C@@H]1c1ccccc1` (racemic), for which the Ki was 631 nM.

Regarding `O=C(NCCCNC1CCCCC1)[C@H]1C[C@@H]1c1ccccc1` (stereo in doubt; (+)-1), the Ki is 158 nM.

`O=C([C@H]1C[C@@H]1c1ccc(F)cc1)N1CCC(CNCC2CCCCC2)CC1` (racemic): the inhibitory constant (Ki) was 79.4 nM.

Another series concerns the target 5-hydroxytryptamine receptor 2A (Homo sapiens) (UniProt P28223). The experiment in a line: Binding affinity to 5HT-2a receptor (unknown origin) at 10 uM by displacement assay relative to control.
Conditions: not given
The term inhibition denotes the drop in the measured response relative to a control, in per cent. The low end stands for a weak effect, the high end for a strong effect. In the case of `O=C(NCCN1CCN(Cc2ccc(Cl)c(Cl)c2)CC1)[C@H]1C[C@@H]1c1ccccc1` (racemic), the inhibition is > 90%.

On to `O=C(NCCN1CCN(C(=O)c2c(F)cccc2Cl)CC1)[C@H]1C[C@@H]1c1ccccc1` (racemic), for which the inhibition is > 90%.

System in the next series: not listed separately
The experiment in a line: Octanol-water distribution coefficient, log D of the compound at pH 7.4. As to conditions: read-out: logD. Type of series: physicochemical.
Broadly, the logD is lipophilicity at a set pH, counting ionised and neutral species. Consider `O=C(NCCN1CCN(Cc2ccc(Cl)c(Cl)c2)CC1)[C@H]1C[C@@H]1c1ccccc1` (racemic), for which the logD is > 4.

`O=C([C@H]1C[C@@H]1c1ccccc1)N1CCC(N2CCCC2)CC1` (racemic): the log distribution coefficient (logD) was 0.7.

`O=C(NCCN1CCN(C(=O)c2c(F)cccc2Cl)CC1)[C@H]1C[C@@H]1c1ccccc1` (racemic): the logD was 2.3.

A further series concerns the target Acetylcholinesterase (Homo sapiens) (UniProt P22303). Nature of the series: Binding affinity to AChE (unknown origin) at 10 uM by displacement assay relative to control.
Conditions: not given
Regarding `C=CCN1CC[C@]2(C)c3cc(O)ccc3C[C@@H]1[C@@H]2C`, the inhibition was 50%.

System in another series: not listed separately
The experiment in a line: Intrinsic clearance in mouse liver microsomes measured per mg of protein. The note with it: read-out: CLH. The series is classed as ADME. On the technique in general: Microsomes from liver hold many membrane-bound enzymes, among them those of drug oxidation.
For `C=CCN1CC[C@]2(C)c3cc(O)ccc3C[C@@H]1[C@@H]2C`, the microsomal CLint was found to be 17 µL/min/mg.

System in a further series: not listed separately
Nature of the series: Dissociation constant, pKa of the compound. The series is classed as physicochemical.
Conditions: not given
A word on the pKa: it is the negative logarithm of the acid dissociation constant. Low readings indicate a stronger acid or weaker base, high ones a weaker acid or stronger base. For `O=C([C@H]1C[C@@H]1c1ccccc1)N1CCC(N2CCCC2)CC1` (racemic), the pKa amounted to 9.3.

Another series has as its target Mu-type opioid receptor (Homo sapiens) (UniProt P35372). The experiment in a line: Binding affinity to mu opioid receptor (unknown origin) at 10 uM by displacement assay relative to control.
Conditions: not given
In turn, `C=CCN1CC[C@]2(C)c3cc(O)ccc3C[C@@H]1[C@@H]2C` gave an inhibition of 50%.

System in another series: not listed separately
The experiment in a line: Ratio of drug level in brain to plasma in C57BL6/J mouse at 1 mg/kg, ip measured at 40 mins. The series is classed as ADME, organism-based. Details: dose 1 mg/kg, route intraperitoneal. As to conditions: brain and plasma, read-out: BPR.
Regarding `C=CCN1CC[C@]2(C)c3cc(O)ccc3C[C@@H]1[C@@H]2C`, the Kp at 40 min came to 5.64.

The target in a further series is 5-hydroxytryptamine receptor 1A (Homo sapiens) (UniProt P08908). The experiment in a line: Binding affinity to 5-HT1a receptor (unknown origin) at 10 uM by displacement assay relative to control.
Sequence of 5-hydroxytryptamine receptor 1A (Homo sapiens) (P08908 whole entry): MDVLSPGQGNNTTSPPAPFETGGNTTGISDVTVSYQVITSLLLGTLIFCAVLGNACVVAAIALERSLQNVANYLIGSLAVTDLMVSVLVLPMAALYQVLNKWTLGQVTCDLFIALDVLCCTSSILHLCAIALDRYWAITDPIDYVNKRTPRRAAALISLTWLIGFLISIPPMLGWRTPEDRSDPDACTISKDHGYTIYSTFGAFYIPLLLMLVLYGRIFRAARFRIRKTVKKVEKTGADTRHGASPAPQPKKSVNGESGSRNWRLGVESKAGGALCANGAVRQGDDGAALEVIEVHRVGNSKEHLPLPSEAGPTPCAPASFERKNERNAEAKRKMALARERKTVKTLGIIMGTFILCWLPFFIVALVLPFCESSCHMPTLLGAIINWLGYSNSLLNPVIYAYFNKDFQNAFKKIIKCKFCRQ
Conditions: not given
On to `O=C([C@H]1C[C@@H]1c1ccc(F)cc1)N1CCC(CNCC2CCCCC2)CC1` (racemic), for which the inhibition amounted to 50%.

A further series deals with Muscarinic acetylcholine receptor (Rattus norvegicus) (UniProt P08482+P08483+P08485+P08911+P10980). The experiment in a line: Displacement of [3H]-QNB from muscarinic receptor in rat cerebral cortex at 10 uM relative to control.
Conditions: not given
The series is classed as tissue-based. (Loss of bound radioactivity is the signal in a displacement assay; it reports binding, not function.)
`O=C([C@H]1C[C@@H]1c1ccc(F)cc1)N1CCC(CNCC2CCCCC2)CC1` (racemic) yielded an inhibition of 50%.

Another series deals with Histamine H1 receptor (Homo sapiens) (UniProt P35367). Nature of the series: Binding affinity to histamine H1 receptor (unknown origin) at 10 uM by displacement assay relative to control.
Sequence of Histamine H1 receptor (Homo sapiens) (P35367 whole entry): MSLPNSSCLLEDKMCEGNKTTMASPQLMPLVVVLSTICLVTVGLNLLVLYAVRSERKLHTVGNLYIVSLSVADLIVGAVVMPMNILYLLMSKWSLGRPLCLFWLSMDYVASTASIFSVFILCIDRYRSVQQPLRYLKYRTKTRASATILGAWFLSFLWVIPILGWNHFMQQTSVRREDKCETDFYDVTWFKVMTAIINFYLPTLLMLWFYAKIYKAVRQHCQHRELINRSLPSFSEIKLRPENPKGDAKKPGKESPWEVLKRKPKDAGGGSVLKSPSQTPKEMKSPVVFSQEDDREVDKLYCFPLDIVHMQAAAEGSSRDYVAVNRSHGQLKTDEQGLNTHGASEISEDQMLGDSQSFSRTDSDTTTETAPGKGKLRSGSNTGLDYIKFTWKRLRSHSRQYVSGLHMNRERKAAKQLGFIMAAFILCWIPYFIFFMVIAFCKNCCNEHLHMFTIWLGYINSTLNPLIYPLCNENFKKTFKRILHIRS
Conditions: not given
Molecule `O=C(NCCN1CCN(Cc2ccc(Cl)c(Cl)c2)CC1)[C@H]1C[C@@H]1c1ccccc1` (racemic) came in with an inhibition of 50%.

System in another series: not listed separately
The experiment in a line: Apparent permeability across apical to basolateral side in human Caco2 cells at 20 uM measured up to 3 hrs. Type of series: ADME, cell-based. As to conditions: Caco-2. In general terms: Caco-2 cells form a polarised layer with tight junctions and transporters.
Broadly, the Papp A→B is how fast a substance crosses the layer from the apical side. Turning to `C=CCN1CC[C@]2(C)c3cc(O)ccc3C[C@@H]1[C@@H]2C`, the Papp A→B at 3 h, 20 µM stood at 20.2 ×10⁻⁶ cm/s.

The species named for a further series is Homo sapiens. The experiment in a line: Binding affinity to […] channel (unknown origin) at 10 uM by displacement assay relative to control.
Conditions: not given
In turn, `O=C(NCCN1CCN(Cc2ccc(Cl)c(Cl)c2)CC1)[C@H]1C[C@@H]1c1ccccc1` (racemic) showed an inhibition of 50%.

The molecule `O=C([C@H]1C[C@@H]1c1ccc(F)cc1)N1CCC(CNCC2CCCCC2)CC1` (racemic) had an inhibition of 50%.

Another series has as its target Kappa-type opioid receptor (Homo sapiens) (UniProt P41145). Nature of the series: Binding affinity to kappa opioid receptor (unknown origin) at 10 uM by displacement assay relative to control.
Conditions: not given
On to `C=CCN1CC[C@]2(C)c3cc(O)ccc3C[C@@H]1[C@@H]2C`, for which the inhibition is > 90%.

A further series is filed under the species Rattus norvegicus. Nature of the series: Displacement of [3H]1,3-di-O-tolylguanidine from sigma-2 receptor in rat cerebral cortex at 10 uM relative to control. Type of series: tissue-based.
Conditions: not given
In turn, `C=CCN1CC[C@]2(C)c3cc(O)ccc3C[C@@H]1[C@@H]2C` yielded an inhibition of 29%.

The values are drawn from ChEMBL document CHEMBL3217650, “Discovery of novel selective Sigma-1 ligands as cognitive enhancers” (Medchemcomm, 2011).
